Laboratory results from patent US9452152B2, “Fe(III) complex compounds for the treatment and prophylaxis of iron deficiency symptoms and iron deficiency anemias” (Vifor (International) AG, priority 2012, dated 2016).

Experiments:
[1] = tested on: Male NMRI (SPF) mice fed a low-iron diet; assay: Fe utilization in iron-deficient mouse model (hemoglobin and body weight increase); format: in vivo; conditions: for Utilization n 15 d (abs. %): mice, stomach tube, 2 mg iron/kg body weight/day, days 1-5 and 8-12, utilization on day 15; for iron utilization, Example according to the invention: comparison table, compounds of the invention
Protocol: The excellent Fe utilizations that can be accomplished through the Fe complexes according to the invention were measured by means of the following mouse model.
(In each case 6 animals per substance were used. There was a negative group (water) with 6 animals and as a positive group FeSO4 was used with 6 animals, too).
Male NMRI (SPF) mice (approximately 3 weeks old) were fed a low-iron diet (approx. 5 ppm iron) for approximately 3 weeks. The iron complexes were then administered to them by means of a stomach tube (2 mg iron/kg body weight/day) for 2 times 5 days, with an interruption of 2 days (days 1-5 and 8-12). Utilization on day 15 was calculated from the hemoglobin increase and the body weight increase in accordance with the formula
0.07=Factor for 70 ml blood per kg body weight (BW)
Hb1=Hemoglobin level (g/l) on day 1
Hb2(3)=Hemoglobin level (g/I) on day 8 (or 15)
BW4=body weight (g) on day 1
BW9(14)=body weight (g) on day 8 (or 15)
Hb1 Control=average hemoglobin level (g/l) on day 1 in the control group,
Hb2(3) Control=average hemoglobin level (g/l) on day 8 (or 15) in the control group,
BW4 Control=average body weight (g) on day 1 in the control group,
BW9(14) Control=average body weight (g) on day 8 (or 15) in the control group,
Fe Dos.=entire administered iron (mg Fe) over 5 or 10 days,
Δ Utilization=Fe tot. utilized (examined group)−Fe ut. Control group, utilized from food, (mg Fe)

[2] = Comparison of the pH-dependent solubility (photometric iron determination); format: physicochemical; conditions: water, pH 6.5 (phthalate buffer 0.1 m), 4 h, 25° C.; for Solubility based on amount of iron: ">" = weighed amount completely dissolved
Excerpt: The pH was adjusted to 6.5 with a phthalate buffer (0.1 m). […] UV device type SPECORD 205 manufacturer Jena Analytik). This value represents the solubility of the iron complex. If the weighed amount of the iron complex was completely dissolved, the measured value was indicated by the prefix “>”.

| Substance | Utilization n 15 d (abs. %) [1] | optical evaluation: dissolved? [2] | Solubility based on amount of iron [2] | iron utilization, Example according to the invention ([1]; mouse model) | iron utilization (statement in words) ([1]; mouse model) |
| --- | --- | --- | --- | --- | --- |
| Tris-(N^1,N^4,N^4-trimethyl-2-oxobutanediamide)-iron(III)-complex [Example 7] | 68 abs. % |  |  |  |  |
| Tris-(2,4-dioxo-4-(pyrrolidine-1-yl)butaneamide)-iron(III)-complex [Example 4] | 92 abs. % |  |  |  |  |
| Tris-(N^1-[2-(dimethylamino)-2-oxoethyl]-N^1,N^4,N^4-trimethyl-2-oxobutanediamide)-iron(III)-complex [Example 18] | 78 abs. % | no | 580 µg/mL |  |  |
| Tris-(N,N,N′,N′-tetramethyl-2-oxobutanediamide)-iron(III)-complex [Example 5] | 82 abs. % | yes | >550 µg/mL | 82% |  |
| Tris-(N^4-(2-methoxyethyl)-N^1,N^1,N^4-trimethyl-2-oxobutanediamide)-iron(III)-complex [Example 13] | 70 abs. % | yes | >520 µg/mL |  |  |
| Tris-(N^4,N^4-dimethyl-2-oxobutanediamide)-iron(III)-complex [Example 1] | 98 abs. % | yes | 529 µg/mL | 98% | significantly improved iron utilization compared to Example 32 of WO11117225A1 |
| Tris-(N^4-(2-hydroxyethyl)-N^1,N^1,N^4-trimethyl-2-oxobutanediamide)-iron(III)-complex [Example 21] | 86 abs. % | no | 490 µg/mL | 86% |  |
| Tris-(N^4-[2-(dimethylamino)-2-oxoethyl]-N^1,N^1,N^4-trimethyl-2-oxobutanediamide)-iron(III)-complex [Example 12] | 80 abs. % | yes | >510 µg/mL |  |  |
| Tris-(N,N-Dimethyl-3,4-dioxo-4-(pyrrolidine-1-yl)butaneamide)-iron(III) complex [Example 11] | 50 abs. % |  |  |  |  |
| Tris-(N^1-(2-methoxyethyl)-N^4,N^4-dimethyl-2-oxobutanamid)-iron(III)-complex [Example 16] | 65 abs. % | no | 450 µg/mL |  |  |
| Tris-(ethyl-N-[4-(dimethylamino)-2,4-dioxobutanoyl]-N-methylglycinate)-iron(III)-complex [Example 17] | 91 abs. % | no | 470 µg/mL |  |  |
| Tris-(4-(morpholine-4-yl)-2,4-dioxobutaneamide)-iron(III)-complex [Example 2] | 75 abs. % |  |  | 75% |  |
